Biological target: T1, human MCHR1 (Homo sapiens, UniProt Q99705)
T1 construct: host or cells: CHO
Assay: Cyclic AMP assay (MCHR-1 functional antagonism)
Format: cell-based
Conditions: CHO cells stably expressing human MCHR1; cAMP accumulation with 25 uM forskolin and 0.2 nM MCH, 90 min; Ki from IC50 by Cheng-Prusoff; read-out: MCHR-1 functional Ki
Procedure: CHO cell lines stably expressing the human MCHR1 (Euroscreen, Brussels, Belgium) were maintained in DMEM containing Glutamax (Invitrogen, Carlsbad, Calif.), 10% FBS, 400 ug/ml Geneticin.
Cyclic AMP assays. CHO cells stably expressing the human MCHR1 receptors were collected and resuspended at a density of 4.0×10^6 cells/ml in F12 (Hams) media and seeded (20,000 cells per well) into 384-well, solid white Greiner assay plates. […] Cells were incubated at 37° C./5% CO2 for 90 minutes and cAMP accumulation subsequently determined by DiscoveRx Hithunter c-AMP II Assay kit (GE Healthcare, Buckinghamshire, UK) in accordance with manufactures instructions. Luminescence was measured on a LEADseaker imaging system (GE Healthcare, Buckinghamshire, UK). IC50 values were calculated from dose-response data fit using an in-house computer graphics and statistics program.

T1 sequence (Q99705 whole entry): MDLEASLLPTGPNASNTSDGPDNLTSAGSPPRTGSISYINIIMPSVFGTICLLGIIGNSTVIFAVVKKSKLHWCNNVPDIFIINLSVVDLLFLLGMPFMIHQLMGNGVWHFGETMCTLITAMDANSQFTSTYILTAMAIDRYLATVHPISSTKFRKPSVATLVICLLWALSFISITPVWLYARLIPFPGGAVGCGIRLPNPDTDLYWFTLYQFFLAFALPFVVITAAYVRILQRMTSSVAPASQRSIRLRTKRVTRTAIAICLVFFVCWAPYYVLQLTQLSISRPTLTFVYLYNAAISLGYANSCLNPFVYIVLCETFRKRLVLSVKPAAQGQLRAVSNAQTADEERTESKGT

SMILES	Ki [nM]
O=c1cc(OCc2ccc(Cl)cc2)ccn1-c1ccc(N2CC[C@H](O)C2)nc1 [Example 29, 4-[(4-Chlorobenzyl)oxy]-6′-[(3S)-3-hydroxypyrrolidin-1-yl]-2H-1,3′-bipyridin-2-one]	23.7
CCN(C(=O)OC)[C@@H]1CCN(c2ccc(-n3ccc(OCc4ccccc4)cc3=O)cn2)C1 [Example 178]	19.2
O=c1cc(OCc2ccccc2)ccn1-c1ccc(N2CC(N3CCCC3)C2)nc1 [Example 78]	155
O=c1cc(OCc2ccccc2)ccn1-c1ccc(N2C[C@H]3C[C@@H]2CN3)nc1 [Example 231]	752
CCC(=O)N1CCN(c2ccc(-n3ccc(OCc4ccc(F)cc4)cc3=O)cn2)CC1 [Example 168]	539
O=c1cc(OCc2ccc(F)cc2)ccn1-c1ccc(N2CCC2)nc1 [Example 90]	96.7
CNC1CN(c2ccc(-n3ccc(OCc4ccc(F)cc4)cc3=O)cn2)C1 [Example 112]	184
CCN1CCN(c2ccc(-n3ccc(OCc4ccccc4)cc3=O)cn2)CC1 [Example 7, 4-(Benzyloxy)-6′-(4-ethylpiperazin-1-yl)-2H-1,3′-bipyridin-2-one]	87.1
CO[C@@H]1CCN(c2ccc(-n3ccc(OCc4ccccc4)cc3=O)cn2)C1 [Example 235]	10.9
CC1(N)CCN(c2ccc(-n3ccc(OCc4ccccc4)cc3=O)cn2)C1 (single isomer, unassigned) [Example 17b, 6′-(3-Amino-3-methylpyrrolidin-1-yl)-4-(benzyloxy)-2H-1,3′-bipyridin-2-one]	38.1
CN(C)C(=O)C1CCN(c2ccc(-n3ccc(OCc4ccccc4)cc3=O)cn2)C1 (single isomer, unassigned) [Example 25a, 1-[4-(Benzyloxy)-2-oxo-2H-1,3′-bipyridin-6′-yl]-N,N-dimethylpyrrolidine-3-carboxamide]	71.1
CC1(O)CCN(c2ccc(-n3ccc(OCc4ccccc4)cc3=O)cn2)C1 (stereo not drawn) [Example 240]	77.5
CC1(N)CCN(c2ccc(-n3ccc(OCc4ccccc4)cc3=O)cn2)C1 (single isomer, unassigned) [Example 17a, 6′-(3-Amino-3-methylpyrrolidin-1-yl)-4-(benzyloxy)-2H-1,3′-bipyridin-2-one]	15.3
O=c1cc(OCc2ccccc2Cl)ccn1-c1ccc(N2CC[C@@H](O)C2)nc1 [Example 145]	98.5
CNC1(C)CCN(c2ccc(-n3ccc(OCc4ccccc4)cc3=O)cn2)C1 (single isomer, unassigned) [Example 18a, 4-(Benzyloxy)-6′-[3-methyl-3-(methylamino)pyrrolidin-1-yl]-2H-1,3′-bipyridin-2-one]	8.86
O=c1cc(OCc2ccc(F)cc2)ccn1-c1ccc(N2CC(N3CCC3)C2)nc1 [Example 96]	195
CN(C)C1CCN(c2ccc(-n3ccc(OCc4ccccc4)cc3=O)cn2)CC1 [Example 5, 4-(Benzyloxy)-6′-[4-(dimethylamino)piperidin-1-yl]-2H-1,3′-bipyridin-2-one]	111
CN(C(=O)OC(C)(C)C)[C@H]1CCN(c2ccc(-n3ccc(CCc4ccccc4)cc3=O)cn2)C1 [Example 32, tert-Butyl methyl{(3S)-1-[2-oxo-4-(2-phenylethyl)-2H-1,3′-bipyridin-6′-yl]pyrrolidin-3-yl}-carbamate]	18.3
CC(C)C1CN(c2ccc(-n3ccc(OCc4ccccc4)cc3=O)cn2)CCN1 (stereo not drawn) [Example 221]	126
CC(=O)N(C)C1CCN(c2ccc(-n3ccc(OCc4ccccc4)cc3=O)cn2)CC1 [Example 165]	29.2
CCO[C@@H]1CCN(c2ccc(-n3ccc(OCc4ccccc4)cc3=O)cn2)C1 [Example 39]	42
CNC1CCN(c2ccc(-n3ccc(OCc4ccccc4)cc3=O)cn2)CC1 [Example 58]	28.8
O=c1cc(OCc2ccccc2)ccn1-c1ccc(N2CCC(O)CC2)nc1 [Example 46]	212
CC(C)CC1CN(c2ccc(-n3ccc(OCc4ccccc4)cc3=O)cn2)CCN1 (stereo not drawn) [Example 222]	680

Reference: patent publication US20080085884A1, “Melanin Concentrating Hormone Receptor-1 Antagonist Pyridinones” (Pfizer Inc, priority 2006, published 2008)
